Measured values published in patent US9303069B2, “Peptides for treating cancer” (University of Mississippi Medical Center, priority 2014, dated 2016).
pIC50: −log10 of the molar value.

How the values were obtained:
[1] = test system: HME, HME/IRIS, MDA-MB-231, MDA-MB-468 and BT549 cells; test: Survival of breast cell lines with IRIS peptide, paclitaxel or both; assay type: cell-based, human; settings: all cell lines, 24 hours
Description: (§1) To investigate whether inactivating BRCA1-IRIS could sensitize TNBC to paclitaxel-induced cell death, HME cells were exposed to 0.5 μM, while HME/IRIS, MDA-MB-231, MDA-MB-468 and BT549 cells were exposed to 5 μM of IRIS peptide alone or with 5, 10 or 20 μM of paclitaxel for 24 hours. […] Again, IRIS peptide alone at these concentrations led to 50% reduction in survival of all cell lines. […] Indeed, in the presence of IRIS peptide >60%, >70% and >90% reduction in the survival of all cell lines in the presence of 5, 10 and 20 μM of paclitaxel, respectively (FIG. 84).
Cell viability measurement. Cell viability under different experimental conditions was determined using the MTS assay. Briefly, cells (2.5×10^4 cells per well) were seeded in 96-well plates and incubated overnight at 37° C. in 10% humidified CO2 atmosphere. The next day they were incubated with varying concentration of peptide, or inhibitors for 24 hours at 37° C. Cell viability was determined using cell Titer 96® Aqueous (Promega, Madison, Wis., USA) following manufacturer's instructions. Cell viability (%) was expressed as a ratio of treated cells to control cells×100. Growth inhibition was also determined by manually counting cells in five different microscopic fields. Change in cell numbers (fold) was expressed as a ratio of the means of these recording of treated cells compared to control cells×100. Each experiment was done in triplicate, repeated three separate times.

[2] = test system: BRCA1-IRIS; test: BRCA1-IRIS expression in breast cells (Western); assay type: cell-based, human
Description: HME and HME/IRIS cells were treated with 10, 20 and 50 μM of paclitaxel for 24 hours. Compared to HME/IRIS cells, untreated HME cells express very low level of BRCA1-IRIS (FIG. 68, left). […] Both EGF and NRG1, which were secreted at higher levels from untreated HME/IRIS cells, remained high after paclitaxel (until ˜50 μM, FIG. 68, left), whereas in HME cells, both were induced by low paclitaxel treatment (FIG. 68, left). Consistently, in HME/IRIS cells EGFR was phosphorylated on Y1173 (activated by EGF when EGFR is in complex with ErbB2) and ErbB2 on Y1248 (activated by NRG1 when ErbB2 is in complex with ErbB3) remained the same after paclitaxel treatment (until ˜50 μM, FIG. 68, left). Phosphorylated EGFR-Y1173 and ErbB2-Y1248 was only observed in paclitaxel treated HME cells, especially at low concentration (FIG. 68, left).
Survived/paclitaxel-resistant cells were then propagated in the absence of paclitaxel and analyzed. Again, the intrinsically high level of BRCA1-IRIS was not affected by paclitaxel in HME/IRIS cells (FIG. 69, left). […] The expressions of EGFR, ErbB2 and ErbB3 were high in HME/IRIS and HME cells (FIG. 69, left). Despite an intrinsic increase in HME/IRIS and paclitaxel-acquired increase in HME cells in AKT activation, FOXO inactivation/degradation and thus activation increase in CyclinD1, survivin, Bcl-2, Bcl-xL and NF-κB was observed (FIG. 69, right).
To test that hypothesis, an intron 11 peptide (right in FIG. 26) fused to a cell/nucleus penetrating signal at its N-terminus (left in FIG. 26) was synthesized (hereafter IRIS peptide). First, to assess the effect of this IRIS peptide, equal numbers of HME, HME/IRIS, MDA-MB-231, MDA-MB-468 and BT549 cells were exposed to increasing concentrations of scrambled or IRIS peptide for 48 hours. […] It is possible that preventing BRCA1-IRIS-X complex formation destabilizes BRCA1-IRIS and perhaps leads to its degradation.
as §1
To relate the effect of IRIS peptide on cell survival to the effect of BRCA1-IRIS on AKT and ERK survival pathways, MDA-MB-231 and MDA-MB-468 were treated with vehicle, 5 μM of IRIS peptide, 10 μM LY294002, 10 μM PD98059 for 24 hours or were transfected with BRCA1-IRIS siRNA for 72 hours.

[3] = test system: MDA-MB-468 tumors; test: In vivo efficacy on established MDA-MB-468 tumors; design: species or system mice; settings: 12 days; paclitaxel 10 mg/kg i.p., every third day, four injections
Description: Nude 6-8 weeks female mice were injected with 2×10^6 of MDA-MB-468 cells in the 2nd left and 4th right mammary fat pads. When all tumors reached ˜0.1 cm^3 in volume, mice were divided into four groups, one received vehicles (i.e. DMSO injected intraperitoneally [i.p.] and scrambled peptide injected directly into tumors [i.t.]), another received paclitaxel (10 mg/kg, i.p.), the third received IRIS peptide at (10 mg/kg, i.t.), and the last received paclitaxel and IRIS peptide at half the concentrations, injected as above. Drugs were delivered every third day for total of four injections.
In Vivo efficacy of BRCA1-IRIS-inhibitory peptide. Six to eight week old female athymic SCID mice were injected in the second right and the fourth left mammary gland with 2.5×10^6 of MDAMB468 cells. Tumor growth was followed daily until tumors reached 100 mm^3. At this time mice were randomly grouped into four different groups that were injected: a) with DMSO (i.p.) and scrambled peptide (10 mg/kg) intra-tumoral (i.t.), b) injected with IRIS peptide (10 mg/kg, i.t.), c) injected with paclitaxel (10 mg/kg, i.p.), d) injected with IRIS peptide (5 mg/kg, i.t.), and paclitaxel (5 mg/kg, i.p.). […] Change in tumor volume was measured to monitor the efficacy of the treatments using caliper and is represented as percentage of volume at day 0 of treatment. […]

[4] = test system: BRCA1-IRIS and survivin; test: IHC of MDA-MB-468 tumors for BRCA1-IRIS and survivin; assay type: in vivo, mice; settings: MDA-MB-468 tumors after treatment
Excerpt: To study that on the molecular level, sections from these tumors were stained with H&E or for BRCA1-IRIS or survivin using immunohistochemistry. […] Accordingly, it is proposed that inactivating BRCA1-IRIS in TNBC patients might sensitize to lower paclitaxel concentrations to avoid the adverse side effects and also to prevent the recurrence of these tumors at a later point.
Immunohistochemistry (IHC). Breast tissue microarrays comprised of normal, DCIS, invasive and metastatic were purchased from US Biomax, Inc. Paraffin embedded tissue sections were de-waxed in xylene and rehydrated in alcohol. Antigen-retrieval: for FOXO3a and survivin was by heating the slides in citrate buffer (10 μM, pH 6.0) using microwave (Power level 4) for 10 minutes, for BRCA1-IRIS by incubating slides in pepsin (10 μM) for 20 min at 37° C. Endogenous peroxidase activity was suppressed by treating the slides with 3% H2O2 for 10 min. Slides were then incubated for 1 hour at room temperature with antibodies to human FOXO3a or survivin (Cell Signaling Technology, USA 1:400), or overnight at 4° C. with monoclonal anti-human BRCA1-IRIS (1:75). Vectastain Elite ABC Kit was used to develop the staining using horseradish peroxidase labeled secondary antibodies (1 hour at room temperature).

[5] = test system: HME cells; test: cells; settings: Homo sapiens, read-out: IC50 of paclitaxel (viability)
Description: (§2) All cell lines were exposed to increasing concentrations of paclitaxel and BRCA1-IRIS expression, and cells' viability was then measured.
(§3) Cell viability measurement. Cell viability under different experimental conditions was determined using the MTS assay. Briefly, cells (2.5×10^4 cells per well) were seeded in 96-well plates and incubated overnight at 37° C. in 10% humidified CO2 atmosphere. The next day they were incubated with varying concentration of peptide, or inhibitors for 24 hours at 37° C. Cell viability was determined using cell Titer 96® Aqueous (Promega, Madison, Wis., USA) following manufacturer's instructions. Cell viability (%) was expressed as a ratio of treated cells to control cells×100. […] Each experiment was done in triplicate, repeated three separate times.

[6] = test system: HME/IRIS cells; test: cells; settings: Homo sapiens, read-out: IC50 of paclitaxel (viability)
Description: as §2, §3

[7] = test system: MDA-MB-231 cells; test: cells; settings: Homo sapiens, MDA-MB-231, read-out: IC50 of paclitaxel (viability)
Description: as §2
(§4) Stable clones were then exposed to 0, 10 or 20 μM of EGFR (Erlotinib), ErbB2 (CP-724714), PI3′K/AKT (LY294002), p38 (SB203580), ERK (PD98059) or JNK (SP600125) inhibitors for 24 hours.

[8] = test system: MDA-MB-468 cells; test: cells; settings: Homo sapiens, MDA-MB-468, read-out: IC50 of paclitaxel (viability)
Description: as §2, §4

[9] = test system: BT549 cells; test: cells; settings: Homo sapiens, BT-549, read-out: IC50 of paclitaxel (viability)
Description: as §2, §3

Compound: CC(=O)O[C@H]1C(=O)[C@@]2(C)[C@H]([C@H](OC(=O)c3ccccc3)[C@]3(O)C[C@H](OC(=O)[C@H](O)[C@@H](NC(=O)c4ccccc4)c4ccccc4)C(C)=C1C3(C)C)[C@]1(OC(C)=O)CO[C@@H]1C[C@@H]2O [paclitaxel]
- reduction in survival ([1]; paclitaxel alone at 5 μM): ~50%
- reduction in survival ([1]; paclitaxel alone at 10 μM): ~60%
- reduction in survival ([1]; paclitaxel alone at 20 μM): ~70%
- BRCA1-IRIS expression in HME cells ([2]; 1 μM of paclitaxel for 1 or 3 weeks): acquired-induction in BRCA1-IRIS expression was detected
- BRCA1-IRIS expression in HME cells ([2]; 10 and 20 μM paclitaxel, 24 hours): significantly upregulated BRCA1-IRIS expression
- BRCA1-IRIS expression in HME/IRIS cells ([2]; paclitaxel 24 hours, until ~50 μM): did not alter the expression of BRCA1-IRIS
- tumor size relative to control tumors [3]: half the size of the control tumors
- BRCA1-IRIS and survivin expression in tumors (IHC) [4]: significantly increase BRCA1-IRIS and survivin expression
- pIC50 [5]: ~5.30
- pIC50 [6]: ~4.30
- pIC50 [7]: < 4.30
- pIC50 [8]: > 4.70
- pIC50 [9]: ~4.46
